Reference: patent publication US10265326B2, “Form C of avibactam sodium” (Sandoz AG, priority 2015, dated 2019)
“Also recorded” adds a separate entry of the source.

How the values were obtained:
[1] = Stress tests: open storage at room temperature over saturated salt solutions at different relative humidities, analysis by PXRD; assay type: physicochemical; conditions: for physical form found by PXRD after stress test: open storage
Procedure: Powder X-ray diffraction (PXRD) was performed with a PANalytical X'Pert PRO diffractometer equipped with a theta/theta coupled goniometer in transmission geometry, Cu-Kalpha1,2 radiation (wavelength 0.15419 nm) with a focusing mirror and a solid state PIXcel detector. Diffractograms were recorded at a tube voltage of 45 kV and a tube current of 40 mA, applying a stepsize of 0.013° 2-Theta with 40 s per step (255 channels) in the angular range of 2° to 40° 2-Theta at ambient conditions. A typical precision of the 2-Theta values is in the range of ±0.2° 2-Theta. Thus, the diffraction peak of substantially pure form C that appears for example at 6.5° 2-Theta can appear between 6.3 and 6.7° 2-Theta on most X-ray diffractometers under standard conditions.
Crystalline form C (prepared according to example 1 herein) was open stored at room temperature in desiccators over saturated salt solutions generating different relative humidities.

[2] = Gravimetric moisture sorption; assay type: physicochemical; conditions: relative humidity 0 to 60%, (25.0±0.1) °C
Procedure: Moisture sorption isotherms were recorded with an SPSx-1μ moisture sorption analyzer (ProUmid, Ulm). The measurement cycle was started at ambient relative humidity (RH) of 30% and first decreased to 3% RH and then to 0% RH. […] The time per step was set to a minimum of 2 hours and a maximum of 6 hours. If an equilibrium condition with a constant mass of ±0.01% within 1 hour was reached before the maximum time for all examined samples the sequential humidity step was applied before the maximum time of 6 hours. If no equilibrium was achieved the consecutive humidity step was applied after the maximum time of 6 hours. The temperature was 25±0.1° C.

NC(=O)[C@@H]1CC[C@@H]2CN1C(=O)N2OS(=O)(=O)O.[Na] [form C, sodium salt of (1R,2S,5R)-7-oxo-6-sulfooxy-1,6-diazabicyclo[3.2.1]octane-2-carboxamide]
relative humidity at or below which no transformation into any other physical form occurs [1]: ≤ 55% | physical form found by PXRD after stress test ([1]; 45% relative humidity (K2CO3), 9 days): substantially pure form C after 9 days and after | physical form found by PXRD after stress test ([1]; 45% relative humidity (K2CO3), 277 days): remains stable; also recorded: substantially pure form C after 9 days and after | physical form found by PXRD after stress test ([1]; 55% relative humidity (Ca(NO3)2 x 4H2O), 9 days): remains stable; also recorded: substantially pure form C after 9 days | physical form found by PXRD after stress test ([1]; 63% relative humidity (NaBr), 3 days): traces of form A detectable after 3 days | physical form found by PXRD after stress test ([1]; 75% relative humidity (NaCl), 3 days): mainly form A with traces of form C after | physical form found by PXRD after stress test ([1]; 86% relative humidity (KCl), one day): form A after one day | weight change, based on the weight of crystalline form C [2]: not more than 0.5%
